Measured values published in the supplement of paper PMC10307832.

Tests used:
Assay in all cases: relative viability (nuclei count vs DMSO), 5 days (fraction); higher = more cells survive
IPA-3 + Navitoclax = compound: C1=CC=C2C(=C1)C=CC(=C2SSC3=C(C=CC4=CC=CC=C43)O)O [IPA-3] + CC1(C)CCC(c2ccc(Cl)cc2)=C(CN2CCN(c3ccc(C(=O)NS(=O)(=O)c4ccc(N[C@H](CCN5CCOCC5)CSc5ccccc5)c(S(=O)(=O)C(F)(F)F)c4)cc3)CC2)C1 [Navitoclax] (partner 0.5 µM)
Outline: (§1)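 The day after seeding in 1536-well plates, lung cancer cell lines were treated by pin tool with a single drug, or with a fixed anchor-drug dose together with five library-drug doses (not always all listed) in √10 steps. After 5 days, a combined fix-and-stain solution (final 0.05% Triton X-100, 1% formaldehyde, 1 ug/ml Hoechst) was added. Nuclei counted on 4× images gave relative viability as treated counts over vehicle counts, reported as the median of duplicate plates.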

Doramapimod + OSI-027 = compound: Cc1ccc(-n2nc(C(C)(C)C)cc2NC(=O)Nc2ccc(OCCN3CCOCC3)c3ccccc23)cc1 [Doramapimod] + COc1cccc2cc(-c3nc([C@H]4CC[C@H](C(=O)O)CC4)n4ncnc(N)c34)[nH]c12 [OSI-027] (partner 0.5 µM)
Outline: as §1

RAF265 + Trametinib = compound: Cn1c(Nc2ccc(C(F)(F)F)cc2)nc2cc(Oc3ccnc(-c4ncc(C(F)(F)F)[nH]4)c3)ccc21 [RAF265] + CC(=O)Nc1cccc(-n2c(=O)n(C3CC3)c(=O)c3c(Nc4ccc(I)cc4F)n(C)c(=O)c(C)c32)c1 [Trametinib] (partner 0.02 µM)
Outline: as §1

RAF265 + Linsitinib = compound: Cn1c(Nc2ccc(C(F)(F)F)cc2)nc2cc(Oc3ccnc(-c4ncc(C(F)(F)F)[nH]4)c3)ccc21 [RAF265] + C[C@]1(O)C[C@@H](c2nc(-c3ccc4ccc(-c5ccccc5)nc4c3)c3c(N)nccn32)C1 [Linsitinib] (partner 1 µM)
Outline: as §1

Cell Line	relative viability (IPA-3 + Navitoclax; first compound 0.2 µM)	relative viability (IPA-3 + Navitoclax; first compound 0.6325 µM)	relative viability (IPA-3 + Navitoclax; first compound 2 µM)	relative viability (IPA-3 + Navitoclax; first compound 6.325 µM)	relative viability (IPA-3 + Navitoclax; first compound 20 µM)	relative viability (Doramapimod + OSI-027; first compound 0.02 µM)	relative viability (Doramapimod + OSI-027; first compound 0.06325 µM)	relative viability (Doramapimod + OSI-027; first compound 0.2 µM)	relative viability (Doramapimod + OSI-027; first compound 0.6325 µM)	relative viability (Doramapimod + OSI-027; first compound 2 µM)	relative viability (RAF265 + Trametinib; first compound 0.01 µM)	relative viability (RAF265 + Trametinib; first compound 0.03162 µM)	relative viability (RAF265 + Trametinib; first compound 0.1 µM)	relative viability (RAF265 + Trametinib; first compound 0.3162 µM)	relative viability (RAF265 + Trametinib; first compound 1 µM)	relative viability (RAF265 + Linsitinib; first compound 0.01 µM)	relative viability (RAF265 + Linsitinib; first compound 0.03162 µM)	relative viability (RAF265 + Linsitinib; first compound 0.1 µM)	relative viability (RAF265 + Linsitinib; first compound 0.3162 µM)	relative viability (RAF265 + Linsitinib; first compound 1 µM)
NCI-H727	0.447	0.377	0.442	0.614	0.556	0.497	0.556	0.688	0.472	0.57	0.403	0.371	0.392	0.334	0.317	0.38	0.26	0.254	0.327	0.132
HARA	1.18	1.09	1.12	1.01	1.2	0.482	0.371	0.392		0.327	0.771	0.484	0.673	0.353	0.308	0.904	0.715	0.891	0.608	0.406
NCI-H2228	0.917	0.89	0.788	0.886	1.02	0.779	0.513	0.571	0.671	0.388	0.651	0.58	0.423	0.201	0.247	0.628	0.698	0.409	0.436	0.327
LCLC-97TM1	0.599	0.4	0.36	0.359	0.451	0.533	0.412	0.517	0.437	0.432	0.225	0.151	0.149	0.16	0.0901	0.169	0.158	0.149	0.136	0.11
LC-2-ad	0.526	0.334	0.444	0.454	0.685	0.897	0.811	0.891	0.827	0.671	0.931	0.958	1.01	0.839	0.432	0.807	0.762	0.727	0.316	0.293
SK-LU-1	1.39		0.786	0.878	0.971	0.332	0.382	0.379	0.35	0.383	0.559	0.419	0.393	0.274	0.257	1.14	0.7	0.687	0.523	0.428
EKVX	1.05	0.608	1.05	0.851	1.23	0.718	0.684	0.679	0.671	0.698	0.387	0.385	0.417	0.217	0.277	0.98	1.02	1.04	0.534	0.822
HCC-827	1.01	1.01	1	0.99	0.993	0.715	0.762	0.756	0.763	0.544	0.592	0.483	0.544		0.362	0.968	0.973	0.978		0.762
NCI-H650						0.544	0.626	0.61	0.608	0.52	1.05	0.972	1.05	0.569	0.328	0.972	0.845	0.666	0.442	0.375
CAL-12T	1.41	1.21	1.39	1.19	1.23	0.627	0.672	0.579	0.711	0.532	0.334	0.296	0.273	0.209	0.333	0.969	0.659	0.671	0.43	0.4
NCI-H1648						0.249	0.254	0.257	0.26	0.268	0.534	0.455	0.535	0.387	0.29					
NCI-H522						0.667	0.705	0.767	0.68	0.656	0.743	0.77	0.613	0.679	0.657					
IA-LM	0.793	0.683	0.765	0.601	0.392											0.641	0.532	0.536	0.732	0.404
EPLC-272H	1.25	1.4	1.16	1.21	1.18	0.32	0.297	0.306	0.316	0.295	0.28	0.287	0.3	0.204	0.205	1.08	1.02	1.03	0.608	0.431
A-427	0.996	0.857	0.98	0.856	0.99	0.435	0.498	0.578		0.402	0.905	0.507	0.592	0.403	0.198	1.15	1.07	1.16	0.676	0.499
NCI-H647	1.54	1.02	1.15	0.589	0.554	0.702	0.546	0.706	0.711	0.639	0.46	0.451	0.277	0.222	0.19	0.801	0.991	1.01	0.574	0.519
NCI-H1975	1.22	0.932	1.06	1.17	1.17	0.703	0.741	0.802	0.792	0.663	0.422	0.286	0.22	0.173	0.191	0.855	0.712	0.567	0.43	0.361
NCI-H358						0.746	0.699	0.634	0.858	0.681	0.152	0.115	0.116	0.127	0.129	0.843	0.565	0.443	0.37	0.267

Cell Line	relative viability (IPA-3 + Navitoclax; first compound 0.2 µM)	relative viability (IPA-3 + Navitoclax; first compound 0.6325 µM)	relative viability (IPA-3 + Navitoclax; first compound 2 µM)	relative viability (IPA-3 + Navitoclax; first compound 6.325 µM)	relative viability (IPA-3 + Navitoclax; first compound 20 µM)	relative viability (Doramapimod + OSI-027; first compound 0.02 µM)	relative viability (Doramapimod + OSI-027; first compound 0.06325 µM)	relative viability (Doramapimod + OSI-027; first compound 0.2 µM)	relative viability (Doramapimod + OSI-027; first compound 0.6325 µM)	relative viability (Doramapimod + OSI-027; first compound 2 µM)	relative viability (RAF265 + Trametinib; first compound 0.01 µM)	relative viability (RAF265 + Trametinib; first compound 0.03162 µM)	relative viability (RAF265 + Trametinib; first compound 0.1 µM)	relative viability (RAF265 + Trametinib; first compound 0.3162 µM)	relative viability (RAF265 + Trametinib; first compound 1 µM)	relative viability (RAF265 + Linsitinib; first compound 0.01 µM)	relative viability (RAF265 + Linsitinib; first compound 0.03162 µM)	relative viability (RAF265 + Linsitinib; first compound 0.1 µM)	relative viability (RAF265 + Linsitinib; first compound 0.3162 µM)	relative viability (RAF265 + Linsitinib; first compound 1 µM)
PC-3 [JPC-3]	0.813	0.691	0.823	0.803	0.842	0.845	0.735	0.742	0.779	0.749	0.708	0.708	0.761	0.469	0.466	1.03	0.911	1.04	0.416	0.722
NCI-H1792	0.939	0.665	0.55	0.675	0.825	0.634	0.672	0.628	0.702	0.534	0.485	0.408	0.361	0.218	0.0679	0.576	0.506	0.583	0.326	0.126
EBC-1	0.417	0.392	0.387	0.333	0.309											0.963	0.856	0.754	0.577	0.503
ABC-1						0.613	0.451	0.433	0.655	0.51						0.875	0.803	0.933	0.661	0.407
NCI-H1650	1.37	1.26	1.12	1.09	1.34	0.692	0.689	0.713	0.76	0.459	0.786	0.708	0.568	0.419	0.43					
NCI-H1563						0.739	0.765	0.733	0.761	0.73						1.13	1.32	1.17	1.26	1.18
SW 900						0.547	0.579	0.858	0.599	0.523	0.83	0.994	0.836	0.679	0.52					
NCI-H1299	1.08	1.08	1.03	1.01	1.03											1	0.878	0.749	0.578	0.414
A549	1.27	1.21	1.39	1.28	1.18											0.61	0.536	0.648	0.273	0.249
NCI-H1623						0.47	0.475	0.478	0.457	0.397										
NCI-H1703	1.71	0.991	1.05	1.13	0.765											0.43	0.561	0.819	0.171	0.251
NCI-H2170	0.702	0.614	0.552	0.507	0.504	0.724	0.784	0.716	0.712	0.677	0.928	0.86	0.792	0.666	0.56					
NCI-H661						0.71	0.732	0.791	0.799	0.629	0.596	0.484	0.371	0.332	0.339	0.589	0.412	0.686	0.455	0.33
NCI-H2342						0.622	0.657	0.614	0.776	0.542	0.75	0.715	0.786	0.698	0.682					
Calu-6	0.794	0.839	0.833	0.753	0.536											0.94	0.83	0.523	0.279	0.223
ChaGo-K-1	1.07	1	0.836	1.06	1.17	0.632	0.607	0.63	0.518	0.409	0.903	0.965	0.859	0.776	0.632					
LCLC-103H						0.444	0.424	0.386	0.422	0.396	0.679	0.689	0.609	0.638	0.465	1.03	1.14	1.1	0.944	0.641
